Data from ChEMBL document CHEMBL3885861, “Open TG-GATES”.

Organism: Rattus norvegicus
Assay: Open TG-GATES - Regimen: Single
Assay type: toxicity, organism-based, Sprague-Dawley
Set-up: regimen Single, gender Male, age 6 weeks
Settings: in vivo, po, 100 mg/kg, route gavage, dose level Low; for APTT / Bas / Eos / Fbg / Hb / Ht / Lym / MCH / MCHC / MCV / Mono / Neu / PT / Plat / RBC / Ret / WBC: tissue Blood; for KIDNEY_L / KIDNEY_R / KIDNEY_TOTAL: tissue Kidney; for LIVER: tissue Liver; for A/G / ALP / ALT / AST / BUN / CRE / Ca / Cl / DBIL / GLC / IP / K / LDH / Na / PL / RALB / TBIL / TC / TG / TP / gamma-GTP: tissue Plasma

CC[C@@H](CO)NCCN[C@@H](CC)CO [ETHAMBUTOL]
TERMINAL_BW (3 h): 224 g
APTT (3 h): 21.6 s
Bas (3 h): 0%
Eos (3 h): 0.8%
Fbg (3 h): 308 mg/dL
Hb (3 h): 13.7 g/dL
Ht (3 h): 40%
Lym (3 h): 80.4%
MCH (3 h): 21.9 pg
MCHC (3 h): 34.1%
MCV (3 h): 64.2 fL
Mono (3 h): 2.4%
Neu (3 h): 14.8%
PT (3 h): 15.6 s
Plat (3 h): 118 x10_4/uL
RBC (3 h): 623.8 x10_4/ul
Ret (3 h): 8.1%
WBC (3 h): 87.8 x10_2/uL
KIDNEY_L (3 h): 1 g
KIDNEY_R (3 h): 1 g
KIDNEY_TOTAL (3 h): 2 g
LIVER (3 h): 10.9 g
A/G (3 h): 1.2
ALP (3 h): 1530.6 IU/L
ALT (3 h): 41 IU/L
AST (3 h): 73 IU/L
BUN (3 h): 12.6 mg/dL
CRE (3 h): 0.1 mg/dL
Ca (3 h): 10.4 mg/dL
Cl (3 h): 107.4 meq/L
DBIL (3 h): 0 mg/dL
GLC (3 h): 189.8 mg/dL
IP (3 h): 8.6 mg/dL
K (3 h): 4 meq/L
LDH (3 h): 172.8 IU/L
Na (3 h): 142.2 meq/L
PL (3 h): 134.2 mg/dL
RALB (3 h): 3 g/dL
TBIL (3 h): 0.018 mg/dL
TC (3 h): 72.6 mg/dL
TG (3 h): 74.4 mg/dL
TP (3 h): 5.4 g/dL
gamma-GTP (3 h): 1.8 IU/L
TERMINAL_BW (6 h): 222.5 g
APTT (6 h): 21.1 s
Bas (6 h): 0%
Eos (6 h): 0.8%
Fbg (6 h): 318 mg/dL
Hb (6 h): 13.5 g/dL
Ht (6 h): 39.8%
Lym (6 h): 78.8%
MCH (6 h): 21.8 pg
MCHC (6 h): 33.9%
MCV (6 h): 64.2 fL
Mono (6 h): 2.8%
Neu (6 h): 16%
PT (6 h): 15.8 s
Plat (6 h): 119.6 x10_4/uL
RBC (6 h): 620.4 x10_4/ul
Ret (6 h): 7.4%
WBC (6 h): 92.6 x10_2/uL
KIDNEY_L (6 h): 1 g
KIDNEY_R (6 h): 1.1 g
KIDNEY_TOTAL (6 h): 2.1 g
LIVER (6 h): 10.2 g
A/G (6 h): 1.2
ALP (6 h): 1476.2 IU/L
ALT (6 h): 45.6 IU/L
AST (6 h): 77 IU/L
BUN (6 h): 12.6 mg/dL
CRE (6 h): 0.2 mg/dL
Ca (6 h): 10.3 mg/dL
Cl (6 h): 106.6 meq/L
DBIL (6 h): 0 mg/dL
GLC (6 h): 180.4 mg/dL
IP (6 h): 9.2 mg/dL
K (6 h): 4.3 meq/L
LDH (6 h): 191.6 IU/L
Na (6 h): 140 meq/L
PL (6 h): 128.6 mg/dL
RALB (6 h): 2.9 g/dL
TBIL (6 h): 0.02 mg/dL
TC (6 h): 72.8 mg/dL
TG (6 h): 54.6 mg/dL
TP (6 h): 5.3 g/dL
gamma-GTP (6 h): 1.8 IU/L
TERMINAL_BW (9 h): 224.5 g
APTT (9 h): 22.3 s
Bas (9 h): 0%
Eos (9 h): 1%
Fbg (9 h): 293.4 mg/dL
Hb (9 h): 13.3 g/dL
Ht (9 h): 38.9%
Lym (9 h): 80%
MCH (9 h): 21.8 pg
MCHC (9 h): 34.2%
MCV (9 h): 63.6 fL
Mono (9 h): 2.2%
Neu (9 h): 15.6%
PT (9 h): 16.2 s
Plat (9 h): 116.9 x10_4/uL
RBC (9 h): 613 x10_4/ul
Ret (9 h): 8%
WBC (9 h): 92.7 x10_2/uL
KIDNEY_L (9 h): 1 g
KIDNEY_R (9 h): 1 g
KIDNEY_TOTAL (9 h): 2.1 g
LIVER (9 h): 9.4 g
A/G (9 h): 1.1
ALP (9 h): 1292.4 IU/L
ALT (9 h): 36.6 IU/L
AST (9 h): 66.8 IU/L
BUN (9 h): 10 mg/dL
CRE (9 h): 0.2 mg/dL
Ca (9 h): 10.1 mg/dL
Cl (9 h): 106.6 meq/L
DBIL (9 h): 0 mg/dL
GLC (9 h): 186.2 mg/dL
IP (9 h): 9 mg/dL
K (9 h): 4.2 meq/L
LDH (9 h): 143 IU/L
Na (9 h): 140.2 meq/L
PL (9 h): 128.2 mg/dL
RALB (9 h): 2.9 g/dL
TBIL (9 h): 0.02 mg/dL
TC (9 h): 75.4 mg/dL
TG (9 h): 59.2 mg/dL
TP (9 h): 5.4 g/dL
gamma-GTP (9 h): 1.8 IU/L
TERMINAL_BW (24 h): 238.5 g
APTT (24 h): 22.6 s
Bas (24 h): 0%
Eos (24 h): 0.6%
Fbg (24 h): 333.2 mg/dL
Hb (24 h): 13.4 g/dL
Ht (24 h): 38.7%
Lym (24 h): 82.4%
MCH (24 h): 21.7 pg
MCHC (24 h): 34.7%
MCV (24 h): 62.7 fL
Mono (24 h): 2.2%
Neu (24 h): 14%
PT (24 h): 15.9 s
Plat (24 h): 119.4 x10_4/uL
RBC (24 h): 618.4 x10_4/ul
Ret (24 h): 7.6%
WBC (24 h): 93.8 x10_2/uL
KIDNEY_L (24 h): 1 g
KIDNEY_R (24 h): 1.1 g
KIDNEY_TOTAL (24 h): 2.1 g
LIVER (24 h): 11.9 g
A/G (24 h): 1.2
ALP (24 h): 1636.2 IU/L
ALT (24 h): 46.8 IU/L
AST (24 h): 75.6 IU/L
BUN (24 h): 17 mg/dL
CRE (24 h): 0.1 mg/dL
Ca (24 h): 10.7 mg/dL
Cl (24 h): 106.6 meq/L
DBIL (24 h): 0 mg/dL
GLC (24 h): 186 mg/dL
IP (24 h): 8.2 mg/dL
K (24 h): 4.1 meq/L
LDH (24 h): 129.2 IU/L
Na (24 h): 141.8 meq/L
PL (24 h): 157.6 mg/dL
RALB (24 h): 3.1 g/dL
TBIL (24 h): 0.012 mg/dL
TC (24 h): 88.8 mg/dL
TG (24 h): 87.4 mg/dL
TP (24 h): 5.7 g/dL
gamma-GTP (24 h): 2.2 IU/L
